# Reference: US20230073183A1, “IMPROVED URICASE AND METHOD FOR TREATING HYPERURICEMIA USING SAME” (SHANGHAI JUNSHI BIOSCIENCES CO., LTD., priority 2019, published 2023)
# T1: Micrococcus uricase variant AG-2C13-PEG (A35C/S288C in AG-00-1, SEQ ID NO: 3; PEGylated) (Arthrobacter globiformis, UniProt D0VWQ1, A35C/S288C)
# T1 construct: purified
# T1 sequence (D0VWQ1 1-297 A35C/S288C): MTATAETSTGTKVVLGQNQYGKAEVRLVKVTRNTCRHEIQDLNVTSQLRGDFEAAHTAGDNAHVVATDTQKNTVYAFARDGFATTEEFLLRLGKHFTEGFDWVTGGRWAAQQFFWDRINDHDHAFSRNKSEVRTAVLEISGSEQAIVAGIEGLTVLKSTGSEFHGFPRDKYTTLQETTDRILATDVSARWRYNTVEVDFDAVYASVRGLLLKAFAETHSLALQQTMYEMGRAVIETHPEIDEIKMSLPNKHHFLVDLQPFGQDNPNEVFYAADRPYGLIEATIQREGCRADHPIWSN
# T2: Micrococcus uricase variant AG-2C12-PEG (S142C/E216C in AG-00-1, SEQ ID NO: 3; PEGylated) (Arthrobacter globiformis, UniProt D0VWQ1, E216C/S142C)
# T2 construct: purified
# T2 sequence (D0VWQ1 1-297 S142C/E216C): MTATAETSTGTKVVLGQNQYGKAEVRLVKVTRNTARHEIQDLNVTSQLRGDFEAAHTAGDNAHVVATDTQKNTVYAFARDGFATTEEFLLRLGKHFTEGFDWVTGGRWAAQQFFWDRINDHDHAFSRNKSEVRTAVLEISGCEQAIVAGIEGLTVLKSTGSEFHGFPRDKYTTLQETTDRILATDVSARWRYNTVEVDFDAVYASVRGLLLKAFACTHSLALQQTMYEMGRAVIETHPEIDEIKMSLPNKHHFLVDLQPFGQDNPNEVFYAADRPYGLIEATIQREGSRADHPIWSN
# T3: Micrococcus uricase variant AG-2C01-2-PEG (A35C/T194C in AG-00-1, SEQ ID NO: 3; PEGylated) (Arthrobacter globiformis, UniProt D0VWQ1, A35C/T194C)
# T3 construct: purified
# T3 sequence (D0VWQ1 1-297 A35C/T194C): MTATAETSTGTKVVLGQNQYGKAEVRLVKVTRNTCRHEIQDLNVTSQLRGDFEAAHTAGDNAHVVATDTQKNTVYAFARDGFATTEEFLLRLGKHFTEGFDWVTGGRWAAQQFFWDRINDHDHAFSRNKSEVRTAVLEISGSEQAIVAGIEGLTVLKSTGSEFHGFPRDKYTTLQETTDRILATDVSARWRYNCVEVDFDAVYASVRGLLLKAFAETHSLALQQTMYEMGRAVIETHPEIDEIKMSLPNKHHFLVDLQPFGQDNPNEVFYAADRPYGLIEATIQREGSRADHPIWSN
# T4: reference uricase MEDI4945 (SEQ ID NO: 2) (Arthrobacter globiformis, UniProt D0VWQ1, N33C/R49S/T11C)
# T4 sequence (D0VWQ1 with tags, fused parts or gaps T11C/N33C/R49S): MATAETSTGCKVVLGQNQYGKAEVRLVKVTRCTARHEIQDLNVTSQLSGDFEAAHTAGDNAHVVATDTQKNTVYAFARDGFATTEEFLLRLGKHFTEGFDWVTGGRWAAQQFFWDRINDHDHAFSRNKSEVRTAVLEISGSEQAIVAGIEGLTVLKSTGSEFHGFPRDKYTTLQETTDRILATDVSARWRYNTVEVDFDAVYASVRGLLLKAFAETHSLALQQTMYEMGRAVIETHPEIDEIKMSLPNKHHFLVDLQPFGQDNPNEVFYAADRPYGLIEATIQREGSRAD
# B1: reference uricase MEDI4945 (SEQ ID NO: 2) (Arthrobacter globiformis; N33C/R49S/T11C) (protein)
# chain: MATAETSTGCKVVLGQNQYGKAEVRLVKVTRCTARHEIQDLNVTSQLSGDFEAAHTAGDNAHVVATDTQKNTVYAFARDGFATTEEFLLRLGKHFTEGFDWVTGGRWAAQQFFWDRINDHDHAFSRNKSEVRTAVLEISGSEQAIVAGIEGLTVLKSTGSEFHGFPRDKYTTLQETTDRILATDVSARWRYNTVEVDFDAVYASVRGLLLKAFAETHSLALQQTMYEMGRAVIETHPEIDEIKMSLPNKHHFLVDLQPFGQDNPNEVFYAADRPYGLIEATIQREGSRAD
# Key:
# Assay type in all cases: biochemical
# [1] = target: T1, Micrococcus uricase variant AG-2C13-PEG (A35C/S288C in AG-00-1, SEQ ID NO: 3; PEGylated); test: Enzyme activity kinetic study of PEGylated uricase with uric acid; details: Tris-HCl pH 8.5, 37° C.; turnover number, substrate converted within one second
# Procedure: (§1) By using a method similar to that in Example 1 to introduce Cys mutations, the following molecules were prepared: AG-2C12, AG-2C13, AG-2C16, AG-2C17, AG-1C13-1, AG-2C01, AG-2C05-1, AG-2C01-1 and AG-2C12-1.
# (§2) To 2 mg of a uricase (100 mM PBS buffer, pH=7.0, 150 mM NaCl) were sequentially added TCEP.HCl (0.5 mg, tris(2-carboxyethyl)phosphine hydrochloride) and M-MAL-PEG-10K (27.5 mg, maleimide polyethylene glycol, molecular weight of 10,000 Da). The mixture was allowed to react at room temperature for 2 h. The reaction mixture was purified by ion-exchange chromatography to obtain a PEGylated uricase.
# (§3) The Cys mutation sites selected above were paired for PEGylation modification and uricase activity evaluation.
# (§4) A. Enzyme Activity Kinetic Study of PEGylated […]
# (§5) Tris-HCl buffer system (pH 8.5) was used. The stock solution for uricase working solutions was 2 mM uric acid, which was stored at 4° C. Process of enzyme activity assay:
# (§6) The temperature was set at 37° C.
# (§7) Substrate (uric acid) concentration gradients: 600 μmol, 500 μmol, 400 μmol, 200 μmol, 100 μmol, 50 μmol, 25 μmol, and 12.5 μmol.
# (§8) 50 μL of the above uric acid solution and 30 μL of the above Tris-HCl buffer were first added to a 96-well plate and incubated at 37° C. for 20 min. Then 20 μL of an appropriately diluted uricase solution (0.004 mg/mL) was rapidly added to the 96-well plate. Procedure setting: reaction for 10 min, one data reading every 20 s, and initiation of reaction.
# [2] = target: T2, Micrococcus uricase variant AG-2C12-PEG (S142C/E216C in AG-00-1, SEQ ID NO: 3; PEGylated); test: as above; details: Tris-HCl pH 8.5, 37° C.; turnover number, substrate converted within one second
# Procedure: as §1, §2, §3, §4, §5, §6, §7, §8
# [3] = target: T3, Micrococcus uricase variant AG-2C01-2-PEG (A35C/T194C in AG-00-1, SEQ ID NO: 3; PEGylated); test: as above; details: Tris-HCl pH 8.5, 37° C.; turnover number, substrate converted within one second
# Procedure: as §1, §2, §3, §4, §5, §6, §7, §8
# [4] = target: T4, reference uricase MEDI4945 (SEQ ID NO: 2); test: Enzyme activity kinetic study of reference uricase with uric acid; details: Tris-HCl pH 8.5, 37° C.; turnover number, substrate converted within one second
# Procedure: (§9) A reference uricase MEDI4945 was synthesized using a method similar to that described above, having an amino acid sequence of SEQ ID NO: 2. MEDI4945 is the uricase disclosed in International Application No. PCT/US2016/032415, having an amino acid sequence shown below:
# as §4, §5, §6, §7, §8
# [5] = substrate: O=c1[nH]c(=O)c2[nH]c(=O)[nH]c2[nH]1; test: as above; details: other: Tris-HCl pH 8.5, 37° C., uric acid 12.5-600 μmol
# Procedure: as §9, §4, §5, §6, §7, §8
Molecule,Kcat [1],Kcat [2],Kcat [3],Kcat [4],Km [5] [µM]
O=c1[nH]c(=O)c2[nH]c(=O)[nH]c2[nH]1 [uric acid],3.6,5.3,5.4,2.6,
B1,,,,,101
